Assay [1] concerns the target T1, Dihydrofolate reductase (Escherichia coli, UniProt P0ABQ4).
T1 sequence (P0ABQ4 whole entry): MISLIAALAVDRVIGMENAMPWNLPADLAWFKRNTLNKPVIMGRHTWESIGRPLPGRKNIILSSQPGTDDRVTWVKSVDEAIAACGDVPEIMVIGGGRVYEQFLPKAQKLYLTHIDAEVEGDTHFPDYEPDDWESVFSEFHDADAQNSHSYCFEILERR
The assay is described as follows: Inhibition constant for Phe31-dihydrofolate reductase (DHFR)-NADPH-Compound complex.

In assay [2] the target is T2, Dihydrofolate reductase (Escherichia coli, UniProt P0ABQ4). The assay is described as follows: Inhibition constant for Tyr31-dihydrofolate reductase (DHFR)-NADPH-Compound complex.
For assay [3], the target named is T2, Dihydrofolate reductase. Briefly: Inhibition constant for Val31-dihydrofolate reductase (DHFR)-NADPH-Compound complex.
Assay [4] concerns the target T2, Dihydrofolate reductase. Briefly: Thermodynamic Dissociation Constant for compound-Tyr31-dihydrofolate reductase (DHFR) complex at pH 6.
For assay [5], the target named is T2, Dihydrofolate reductase. The assay is described as follows: Thermodynamic Dissociation Constant for compound-Phe31-dihydrofolate reductase (DHFR) complex at pH 6.
Assay [6] has as its target T3, Dihydrofolate reductase (Escherichia coli) (UniProt P0ABQ4).
T3 sequence (whole entry): T1 sequence (P0ABQ4 whole entry)
Description: Dissociation constant at(Koff) Tyr-31 of dihydrofolate reductase (DHFR)

Assay [7] concerns the target T3, Dihydrofolate reductase (Escherichia coli). The source holds these as a separate data set.
Description: Dissociation constant(Koff) at Phe-31 of dihydrofolate reductase (DHFR)
Assay [8] shares this target. The source holds these as a separate data set.
Description: Association constant(Kon) at Tyr-31 of dihydrofolate reductase (DHFR)
The target is the same in assay [9]. The source holds these as a separate data set.
Description: Constant at Tyr-31(Kr) of dihydrofolate reductase (DHFR)
Assay [10] shares this target. This is another data set of the same source.
Description: Constant, Kr at Phe-31 of dihydrofolate reductase (DHFR)
For assay [11], the target named is T2, Dihydrofolate reductase. Briefly: Thermodynamic Dissociation Constant for compound-Tyr31-dihydrofolate reductase (DHFR) complex at pH 8.5.
In assay [12] the target is T2, Dihydrofolate reductase. Briefly: Thermodynamic Dissociation Constant for compound-Val31-dihydrofolate reductase (DHFR) complex at pH 7.
Assay [13] concerns the target T2, Dihydrofolate reductase. Briefly: Thermodynamic Dissociation Constant for compound-Val31-dihydrofolate reductase (DHFR) complex at pH 8.5.
Assay [14] concerns the target T2, Dihydrofolate reductase. The assay is described as follows: Thermodynamic Dissociation Constant for compound-Phe31-dihydrofolate reductase (DHFR) complex at pH 7.
Assay [15] has as its target T2, Dihydrofolate reductase. The assay is described as follows: Thermodynamic Dissociation Constant for compound-Phe31-dihydrofolate reductase (DHFR) complex at pH 8.5.
The target of assay [16] is T2, Dihydrofolate reductase. The assay is described as follows: Thermodynamic Dissociation Constant for compound-Tyr31-dihydrofolate reductase (DHFR) complex at pH 7.

Turning to `Cc1nc2nc(N)nc(N)c2nc1C`, the Ki – broadly, a measure of affinity in units of concentration, obtained from inhibition or displacement – is 44 nM at Dihydrofolate reductase [1], 57 nM on Dihydrofolate reductase [2] and 9100 nM on Dihydrofolate reductase [3]. In addition, the Kd (usually the concentration at which binding is half-saturated) is 3900 nM at Dihydrofolate reductase [4] and 1600 nM at Dihydrofolate reductase [5]. Further, the k off in assay [6] worked out at 25 s⁻¹; in [7] it was 35 s⁻¹. This compound displayed a k on in assay [8] of 6.8e+06 M⁻¹ s⁻¹. For the same compound, the Kr is 25 s⁻¹ in [9] and 24 s⁻¹ in assay [10].
`NC(=O)c1ccc[n+]([C@H]2O[C@@H](COP(=O)([O-])OP(=O)(O)OC[C@H]3O[C@@H](n4cnc5c(N)ncnc54)[C@H](OP(=O)(O)O)[C@@H]3O)[C@H](O)[C@@H]2O)c1` [NICOTINAMIDE ADENINE DINUCLEOTIDE PHOSPHATE]: the Kd at Dihydrofolate reductase [11] was found to be 400 nM; at Dihydrofolate reductase [12], 220 nM; on Dihydrofolate reductase [13], 300 nM; at Dihydrofolate reductase [14], 380 nM; at Dihydrofolate reductase [15], 490 nM; at Dihydrofolate reductase [16] it was 340 nM.
For `Nc1nc2ncc(CNc3ccc(C(=O)N[C@@H](CCC(=O)O)C(=O)O)cc3)nc2c(=O)[nH]1` [FOLIC ACID], the Kd amounted to 4800 nM on Dihydrofolate reductase [12], 810 nM at Dihydrofolate reductase [14] and 4400 nM on Dihydrofolate reductase [16].

(Values after ChEMBL document CHEMBL1124276, “Evaluation of the importance of hydrophobic interactions in drug binding to dihydrofolate reductase” (J Med Chem, 1988).)
